Measurements: PubChem BioAssay AID1963825 (Molecular Pharmacology Branch, DTP, NCI, 2024)

Assay: Anticancer human tumor 997537-175-T-J1-PDC patient-derived colon adenocarcinoma cell line growth inhibition [POLQ]
Conditions: 997537-175-T-J1-PDC complex spheroid viability, combination with POLQ inhibitors; for IC50: curve of first compound; for viability, T/C: stronger effect = lower value
How it was run: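 Three-cell-type spheroids modelling solid tumor plus stroma served as the readout system; POL inhibitors were tested individually and in combination, concentration ranges set by clinical Cmax where known.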

[1] = second compound 0.0316 µM, first compound 0.0316 µM
[2] = second compound 0.0316 µM, first compound 0.1 µM
[3] = second compound 0.0316 µM, first compound 0.316 µM
[4] = second compound 0.0316 µM, first compound 1 µM
[5] = second compound 0.0316 µM, first compound 3.16 µM
[6] = second compound 0.0316 µM, first compound 10 µM
[7] = second compound 0.1 µM, first compound 0.0316 µM
[8] = second compound 0.1 µM, first compound 0.1 µM
[9] = second compound 0.1 µM, first compound 0.316 µM
[10] = second compound 0.1 µM, first compound 1 µM
[11] = second compound 0.1 µM, first compound 3.16 µM
[12] = second compound 0.1 µM, first compound 10 µM
[13] = second compound 0.316 µM, first compound 0.0316 µM
[14] = second compound 0.316 µM, first compound 0.1 µM
[15] = second compound 0.316 µM, first compound 0.316 µM
[16] = second compound 0.316 µM, first compound 1 µM
[17] = second compound 0.316 µM, first compound 3.16 µM
[18] = second compound 0.316 µM, first compound 10 µM
[19] = second compound 1 µM, first compound 0.0316 µM
[20] = second compound 1 µM, first compound 0.1 µM
[21] = second compound 1 µM, first compound 0.316 µM
[22] = second compound 1 µM, first compound 1 µM
[23] = second compound 1 µM, first compound 3.16 µM
[24] = second compound 1 µM, first compound 10 µM
[25] = second compound 3.16 µM, first compound 0.0316 µM
[26] = second compound 3.16 µM, first compound 0.1 µM
[27] = second compound 3.16 µM, first compound 0.316 µM
[28] = second compound 3.16 µM, first compound 1 µM
[29] = second compound 3.16 µM, first compound 3.16 µM
[30] = second compound 3.16 µM, first compound 10 µM
[31] = second compound 10 µM, first compound 0.0316 µM
[32] = second compound 10 µM, first compound 0.1 µM
[33] = second compound 10 µM, first compound 0.316 µM
[34] = second compound 10 µM, first compound 1 µM
[35] = second compound 10 µM, first compound 3.16 µM
[36] = second compound 10 µM, first compound 10 µM
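Also: luminescence signal used as a surrogate for viable cells; spheroids exposed to drugs for seven days before readout.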

## CCc1cc2c(N3CCc4c(cc(Cn5ccnc5)cc4-c4cn(C)nc4C(F)(F)F)C3=O)cc(C)nc2c(OC)n1 + COC1C(OC(N)=O)C(O)C(Oc2ccc3c(O)c(NC(=O)c4ccc(O)c(CC=C(C)C)c4)c(=O)oc3c2C)OC1(C)C
Second compound 0.0316 µM
  IC50: > 10 µM
Second compound 0.1 µM
  IC50: 6.36 µM
Second compound 0.316 µM
  IC50: > 10 µM
Second compound 1 µM
  IC50: > 10 µM
Second compound 3.16 µM
  IC50: > 10 µM
Second compound 10 µM
  IC50: > 10 µM
[1]
  viability, T/C: 95.1%
[2]
  viability, T/C: 123%
[3]
  viability, T/C: 88.9%
[4]
  viability, T/C: 95.2%
[5]
  viability, T/C: 69.1%
[6]
  viability, T/C: 55.2%
[7]
  viability, T/C: 106%
[8]
  viability, T/C: 93.3%
[9]
  viability, T/C: 75.1%
[10]
  viability, T/C: 68.8%
[11]
  viability, T/C: 70%
[12]
  viability, T/C: 39.1%
[13]
  viability, T/C: 110%
[14]
  viability, T/C: 107%
[15]
  viability, T/C: 93.5%
[16]
  viability, T/C: 80.7%
[17]
  viability, T/C: 76.1%
[18]
  viability, T/C: 66.7%
[19]
  viability, T/C: 102%
[20]
  viability, T/C: 114%
[21]
  viability, T/C: 86.4%
[22]
  viability, T/C: 61.1%
[23]
  viability, T/C: 64.2%
[24]
  viability, T/C: 60.1%
[25]
  viability, T/C: 113%
[26]
  viability, T/C: 104%
[27]
  viability, T/C: 100%
[28]
  viability, T/C: 68.6%
[29]
  viability, T/C: 49.8%
[30]
  viability, T/C: 65.6%
[31]
  viability, T/C: 92.1%
[32]
  viability, T/C: 88.7%
[33]
  viability, T/C: 74.3%
[34]
  viability, T/C: 66.9%
[35]
  viability, T/C: 54.5%
[36]
  viability, T/C: 59.8%

## O=C(Nc1ccc(O)c(NS(=O)(=O)c2ccc(F)cc2)c1)c1ccc(-c2ccccc2)cc1 + COC1C(OC(N)=O)C(O)C(Oc2ccc3c(O)c(NC(=O)c4ccc(O)c(CC=C(C)C)c4)c(=O)oc3c2C)OC1(C)C
Second compound 0.0316 µM
  IC50: > 10 µM
Second compound 0.1 µM
  IC50: > 10 µM
Second compound 0.316 µM
  IC50: > 10 µM
Second compound 1 µM
  IC50: > 10 µM
Second compound 3.16 µM
  IC50: > 10 µM
Second compound 10 µM
  IC50: > 10 µM
[1]
  viability, T/C: 98.4%
[2]
  viability, T/C: 109%
[3]
  viability, T/C: 104%
[4]
  viability, T/C: 103%
[5]
  viability, T/C: 102%
[6]
  viability, T/C: 97.3%
[7]
  viability, T/C: 112%
[8]
  viability, T/C: 94.4%
[9]
  viability, T/C: 97%
[10]
  viability, T/C: 88.8%
[11]
  viability, T/C: 96%
[12]
  viability, T/C: 95.1%
[13]
  viability, T/C: 108%
[14]
  viability, T/C: 102%
[15]
  viability, T/C: 105%
[16]
  viability, T/C: 96%
[17]
  viability, T/C: 102%
[18]
  viability, T/C: 97.3%
[19]
  viability, T/C: 98.3%
[20]
  viability, T/C: 98.7%
[21]
  viability, T/C: 86%
[22]
  viability, T/C: 94%
[23]
  viability, T/C: 93.9%
[24]
  viability, T/C: 99.3%
[25]
  viability, T/C: 97.5%
[26]
  viability, T/C: 93.2%
[27]
  viability, T/C: 91.8%
[28]
  viability, T/C: 90.2%
[29]
  viability, T/C: 97.5%
[30]
  viability, T/C: 98.8%
[31]
  viability, T/C: 93.6%
[32]
  viability, T/C: 95.7%
[33]
  viability, T/C: 109%
[34]
  viability, T/C: 91.5%
[35]
  viability, T/C: 102%
[36]
  viability, T/C: 91.5%
